Values joined by “and” are separate entries in the source; they are usually repeats but may differ in a detail not shown here. Identical values can stand only once. Active and inactive are the calls of the source.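 How the source made its calls: active means compounds giving half or more protection of infected cells from virus-caused growth loss, again on retest; inactive means the rest.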 Where a SMILES comes first, the peptide text is derived from it. [ ]: non-standard residue; d: D form. The star is where a group is joined. X4 = CC(C)(C)c1cc(OCC(=O)*)ccc1Sc1c(O)cc(-c2ccccc2)oc1=O; NMeLeu(3R-OH) = CN[C@H](C(=O)O)[C@H](O)C(C)C; NMeL = CN[C@@H](CC(C)C)C(=O)O; NMeV = CN[C@H](C(=O)O)C(C)C; dNMeS = CN[C@H](CO)C(=O)O; Abu = CC[C@H](N)C(=O)O; Cbz = O=C(OCc1ccccc1)*; OSu = O=C1CCC(=O)N1O*
Tested on: CEM cells HIV-1 protection, formazan growth assay
Test: NCI AIDS Antiviral Assay
Settings: for IC50: measured here: growth of uninfected CEM cells
Summary of the method: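 CEM (human) cells, HIV-1 infected vs uninfected, 5-point dosing, formazan growth read-out. Retest threshold 50% protection.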

Structure (SMILES) | EC50 | IC50 | outcome
S=c1[nH]ccs1 | > 200 µM | > 200 µM | 
COc1ccc(C(C)c2cc3c(cc2OC)OCO3)cc1 (stereo unspecified) | > 66.1 µM | 0.427 µM | 
CC1(C2COC(=O)C2)SCCCS1 (stereo unspecified) | > 100 µM | 60.3 µM | 
Cc1cc(C)nc(NS(=O)(=O)c2ccc(NC(=O)c3cccc4c(Nc5ccc(S(N)(=O)=O)cc5)c5ccccc5nc34)cc2)n1 | > 55 µM | 21.9 µM | 
O=C(Cn1cc(Br)c(=O)[nH]c1=O)c1ccc(-c2ccccc2)cc1 | > 200 µM | > 200 µM | 
CCOC(=O)C(NC(=O)c1[nH]cnc1/N=N/N(C)C)C(C)C (stereo unspecified) | > 23.4 µM | > 23.4 µM | 
O=c1[nH]c(-c2ccccc2)nc2ccc(Cl)cc12 |  |  | inactive
Cc1cc2c(C(C)C)c(O)c(O)c(C=NCc3ccoc3)c2c(O)c1-c1c(C)cc2c(C(C)C)c(O)c(O)c(C=NCc3ccco3)c2c1O | > 200 µM | 10 µM | 
CCOC(=O)C(C)(C)Oc1ccc2c(=O)cc(-c3ccc(Cl)cc3)oc2c1 | > 18.6 µM | > 18.6 µM | 
O=S1(=O)OCCOS(=O)(=O)C1Cc1nc2ccccc2[nH]1 | > 200 µM | 32.4 µM | 
COc1cc2c(cc1OC)C(=O)/C(=C/c1ccc(O)cc1)CC2 |  |  | inactive
N/N=C(\c1ccccc1)c1ccc([N+](=O)[O-])cc1 | > 135 µM | 97.7 µM | 
O=C(NCCCNCCCCNCCCNC(=O)c1cc(-c2ccccc2)nc2ccccc12)c1cc(-c2ccccc2)nc2ccccc12 | > 20 µM | 3.8 µM | 
C/C(=N/NC(=S)Nc1cccc(Cl)c1)c1cccc(/C(C)=N\NC(=S)Nc2cccc(Cl)c2)n1 | > 200 µM | 5.25 µM | 
Cc1cc2c(c(C(N)=O)c1C)-c1cccc(Cl)c1C2=O |  |  | inactive
COC1(OC)N=C(N)C2(C#N)/C(=N/N(C)C)CC(C)C12C#N (stereo unspecified) | > 200 µM | > 200 µM | 
O=C1N[C@@H]2c3c(Br)sc(Br)c3C(=O)[C@@H]2O1 | > 200 µM | 0.759 µM | 
O=C1C(=O)C2(CC1S(=O)(=O)c1ccccc1)c1ccccc1-c1ccccc12 (stereo unspecified) |  |  | inactive
CC[C@@H]1NC(=O)[C@H]([C@H](O)C(C)C)N(C)C(=O)[C@H](C(C)C)N(C)C(=O)[C@H](CC(C)C)N(C)C(=O)[C@H](CC(C)C)N(C)C(=O)[C@@H](C)NC(=O)[C@H](CCCCNC(=O)COc2ccc(Sc3c(O)cc(-c4ccccc4)oc3=O)c(C(C)(C)C)c2)NC(=O)[C@H](CC(C)C)N(C)C(=O)[C@H](C(C)C)NC(=O)[C@H](CC(C)C)N(C)C(=O)[C@@H](CO)N(C)C1=O (cyclo([Abu][dNMeS][NMeL]V[NMeL]K(X4)[dA][NMeL][NMeL][NMeV][NMeLeu(3R-OH)])) | > 67.6 µM | 4.57 µM | 
COc1ccc(C2c3cc4c(cc3OC(N3CCOCC3)C2C)OCO4)cc1OC (stereo unspecified) | > 200 µM | 7.76 µM | 
NC1=NN(c2ccccc2)C(=O)C1/C(=N\NC(=O)c1cc2ccccc2cc1O)C(=O)Nc1nc([N+](=O)[O-])cs1 (stereo unspecified) | > 12.9 µM | > 12.9 µM | 
CN1C(=S)C(c2ccccc2)Sc2ccccc21 (stereo unspecified) | > 200 µM | 42.7 µM | 
CC(=O)OCC1OC(n2c(-c3ccccc3)c(N=Nc3ccc(Cl)cc3)c(C)c(C#N)c2=S)C(OC(C)=O)C(OC(C)=O)C1OC(C)=O (stereo unspecified) | > 200 µM | 24.5 µM and 95.5 µM | 
C=C[C@@H](C)[C@@H](O[Si](C)(C)C(C)(C)C)c1c(O)c2c(c3c(CCC)cc(=O)oc13)OC(C)(C)C=C2 | > 200 µM | 105 µM | 
CC1=CC(C)(C)NC(=S)N1CCO |  |  | inactive
CC(=O)OC1C(CN2CCOC2=O)OC(n2cc(C)c(=O)[nH]c2=O)C1OC(C)=O (stereo unspecified) | > 200 µM | > 200 µM | 
O=C(N=c1ccc2nc(=O)[nH]n(O)c-2c1)C(F)(F)F | > 200 µM | 186 µM | 

Structure (SMILES) | EC50 | IC50 | outcome
Cn1cc(NC(=O)c2cc([N+](=O)[O-])cn2C)cc1C(=O)Nc1cc(S(=O)(=O)O)c2cc(S(=O)(=O)O)cc(S(=O)(=O)O)c2c1 | 275 µM | 347 µM | 
CC1(C)COC(c2cc3c(cc2Br)OCO3)=N1 | > 209 µM | > 209 µM | 
CCOC(=O)c1ncn(CCc2ccc(Cl)cc2)c1C | > 200 µM | > 100 µM | 
Oc1ccc(S)cc1CNc1ccccc1 | > 200 µM | 22.4 µM | 
O=[N+]([O-])c1ccc(Cl)cc1-n1nc(-c2ccccc2)cc1-c1ccccc1 | > 200 µM | > 200 µM | 
O=C(O/N=c1/ccc(=O)/c(=N\OC(=O)c2ccccc2)c1=O)c1ccccc1 | > 200 µM | 47.9 µM | 
COc1cccc(C(=O)N2CCc3ccccc32)c1OC |  |  | inactive
COc1cc(-c2cc(=O)c3c(O)c(OC)c(OC)c(OC)c3o2)ccc1O | > 132 µM | 9.33 µM | 
CC(=O)Nc1cccc2cc(S(=O)(=O)O)ccc12 | > 200 µM | > 200 µM | 
O=[N+]([O-])c1cnc(-c2ccc(F)cc2)n1CCO | > 200 µM | > 200 µM | 
COc1cccc2c1C(=O)c1c(O)c3c(c(O)c1C2=O)C[C@@](O)(C(=O)CO)C[C@@H]3OC1CC(N2CCOCC2C#N)C(O)C(C)O1 (stereo partly specified) | > 15.5 µM | 0.00501 µM | 
O=C1c2cc3c(cc2CC12Cc1cc4c(cc1C2)CCC4)CCC3 | > 200 µM | > 200 µM | 
O=C1CS(=O)(=O)C(c2ccccc2Cl)N1N1C(=O)CS(=O)(=O)C1c1ccccc1Cl (stereo unspecified) | > 200 µM | 46.8 µM | 
CCCCCCCCCCNC(C)=O | > 200 µM | 85.1 µM | 
O=C1N[C@@H]2CCC[C@@H]2[C@@H]1c1ccc(Cl)cc1 | > 380 µM | 155 µM | 
O=C([O-])c1ccccn1.O=C([O-])c1ccccn1.[Cu+2] | > 200 µM | 7.76 µM | 
C=CCC(C)(O)CCC(O)(CC=C)CC=C (stereo unspecified) | > 200 µM | > 200 µM | 
C=CCC12CC(O)C(O)CC1(O)OC(c1cc(OC)c(OC)c(OC)c1)C2C (stereo unspecified) | > 200 µM | > 200 µM | 
O=C(O)CCC(=O)NC(c1ccccc1)(c1ccccc1)c1ccccc1 | > 200 µM | > 200 µM | 
S=C1Cc2c(-c3ccc(Br)cc3)cc(-c3ccccc3)nc2-c2ccccc2N1 | > 151 µM | 6.17 µM | 
N#C/C(=C\n1c(=S)[nH]c2ccc([N+](=O)[O-])cc21)c1nc2ccccc2s1 | > 200 µM | 102 µM | 
CCOC(=O)c1c(-c2ccccc2)c(C)cn1C | > 200 µM | 120 µM | 
COC(=O)C1(Cc2ccccc2)Cc2c(C)ccc(C)c2C1=O (stereo unspecified) | > 200 µM | > 200 µM | 
O=c1c2cc(Br)ccc2[nH]c(=S)n1-c1ccc(Br)cc1 | > 45.7 µM | > 45.7 µM | 
O=S(=O)(Nc1ccccc1)c1ccc(-c2c3nc(c(-c4ccc(S(=O)(=O)Nc5ccccc5)cc4)c4ccc([nH]4)c(-c4ccc(S(=O)(=O)Nc5ccccc5)cc4)c4nc(c(-c5ccc(S(=O)(=O)Nc6ccccc6)cc5)c5ccc2[nH]5)C=C4)C=C3)cc1 | > 100 µM | > 100 µM | 
C=C1CC(COc2cc(=O)oc3ccccc23)(c2ccccc2)OC1=O (stereo unspecified) | > 200 µM | 0.38 µM | 
O=C1CC(c2ccoc2)NC(=O)N1CCCl (stereo unspecified) | > 200 µM | > 200 µM | 

Structure (SMILES) | EC50 | IC50 | outcome
COc1ccc2c(c1)Oc1cc(O)ccc1[C@@H]2c1ccccc1C(=O)NC(C)c1ccccc1 (stereo partly specified) | > 15.8 µM | 14.5 µM | 
CCC(CC)C(=O)NCC(=O)NO | > 200 µM | > 200 µM | 
CC1(C)CC(=O)C2C(C1)OC1CC(C)(C)CC(=O)C1C2c1ccc2c(c1)OCO2 (stereo unspecified) | > 200 µM | 155 µM | 
CSc1nc(C)cc(N(C)c2ccccc2)n1 | > 200 µM | 32.4 µM | 
O=S(=O)(O)CC(O)CSSCC(O)CS(=O)(=O)O (stereo unspecified) | > 200 µM | > 200 µM | 
CCOc1ccccc1/C=C1\NC(=O)N(/C=C2\C(=O)Oc3ccccc3C2=O)C1=O | > 200 µM | 87.1 µM | 
CC(NC(=O)C(NC(=O)OCc1ccccc1)C(C)C)C(=O)NCC(=O)ON1C(=O)CCC1=O (stereo not drawn) (Cbz-Val-Ala-Gly-OSu; configuration not given here) | > 100 µM | > 100 µM | 
O=C1OC(CCCl)(c2ccccc2)CC1CN1CCOCC1 (stereo unspecified) | > 692 µM | 10.5 µM | 
COC(=O)C1=CN=C(C(=O)OC)NN1 | > 1260 µM | 537 µM | 
CC1OC([C@]2(C)O[C@@H]([C@@]3(C)OC=CC3=O)CC2=O)CC1=O (stereo partly specified) |  |  | inactive
NS(=O)(=O)c1ccc(NC(=O)c2ccccc2SSc2ccccc2C(=O)Nc2ccc(S(N)(=O)=O)cc2)cc1 | 2.19 µM | 85.1 µM | 
C/C(=C/C=C(/C)C(=O)O)C(=O)O | > 1480 µM | > 1480 µM | 
O=Cc1c2c(cc3c1CC1(C3)Cc3cc4c(c(C=O)c3C1)CCC4)CCC2 | > 200 µM | 34.7 µM | 
O=C(Cc1ccccc1)NNc1nc(NNC(=O)c2ccncc2)nc(Nc2ccc([N+](=O)[O-])cc2)n1 | > 100 µM | 11.5 µM | 
CNC(=O)N(CCC#N)CCN(C(=O)N(C)C)c1ccccc1 | > 200 µM | > 200 µM | 
CC(=O)/C(=C/c1ccc(C#N)cc1)C(=O)c1ccccc1 | > 95.5 µM | 16.6 µM | 
CCN(CC)CCC(=O)c1ccc(Oc2ccc(F)cc2)cc1 | > 200 µM | 22.9 µM | 
CCOC(=O)C[C@@H]1C2(C=C[C@@]13CO3)OCC(C)(C)CO2 | > 200 µM | 129 µM | 
O=C1C(C=NC(=S)c2ccccc2)=C(O)c2ccccc21 | > 200 µM | 166 µM | 
O=C1CC2CCC(C1)S2 | > 200 µM | > 200 µM | 
O=S(=O)(c1ccccc1)C(Cl)c1cccc(Cl)c1 (stereo unspecified) | > 63.1 µM | > 63.1 µM | 
Cc1nn(C(=O)CC(=O)Nc2ccccc2Cl)c(C)c1N=Nc1ccccc1Cl |  |  | inactive
CC(OCc1ccccc1)C1OC2(C)CCC(=O)C1O2 (stereo unspecified) |  |  | inactive
NS(=O)(=O)c1ccc(Nc2c3ccccc3nc3c(C(=O)N4CCN(CCO)CC4)ccc(Cl)c23)cc1 | > 49 µM | > 49 µM | 
O=C(Nc1ccc(NC(=O)Nc2cc(C(=O)Nc3ccc(C4=NCCN4)cc3)ccc2C(=O)Nc2ccc(C3=NCCN3)cc2)cc1)Nc1cc(C(=O)Nc2ccc(C3=NCCN3)cc2)ccc1C(=O)Nc1ccc(C2=NCCN2)cc1 | 31.6 µM | > 100 µM | 
CCCC(O)[C@@]1(CC)CC(C)C(O)(C2(C)C[C@H](C)[C@@H](C(CC)C(=O)C(C)[C@@H](O)[C@H](C)C3OC(O)(C(CC)C(=O)O)[C@@H](C)C(O)C3CC)O2)O1 (stereo partly specified) | 0.138 µM | 1.78 µM | 

Source: PubChem BioAssay AID179 (DTP/NCI, 2004)
